In PubChem BioAssay (NCI):
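Five concentrations, 48 hours, 96-well plates. Abbreviation: GI50, concentration required for 50% inhibition of growth. Definition used: TGI = concentration required for complete inhibition of growth.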

Experiments:
Experiment in all cases: inhibition of tumour cell growth, NCI panel, 48 h
[1] = system: A498 renal
[2] = system: A549 NSCLC
[3] = system: EKVX NSCLC
[4] = system: K-562 leukemia
[5] = system: MCF7 breast
[6] = system: MDA-MB-231 breast
[7] = system: SF-268 CNS
[8] = system: SK-MEL-28 melanoma
[9] = system: UO-31 renal
[10] = system: OVCAR-4 ovarian

Row | SMILES | TGI [1] | TGI [2] | TGI [3] | TGI [4] | TGI [5] | TGI [6] | TGI [7] | TGI [8] | TGI [9] | TGI [10] | GI50 [2] | GI50 [3] | GI50 [4] | GI50 [5] | GI50 [6] | GI50 [10] | GI50 [7] | GI50 [8] | GI50 [9] | GI50 [1]
1 | CC(C)(C(=O)NN)c1ccccc1 | > 100 µM | > 100 µM | > 100 µM | > 100 µM | > 100 µM | > 100 µM | > 100 µM | > 100 µM | > 100 µM |  |  |  |  |  |  |  |  |  |  | 
2 | CN(C)c1ccc2c(NCCCCCCNc3ccnc4cc(N(C)C)ccc34)ccnc2c1 | 95.8 µM | > 100 µM | > 100 µM | > 100 µM |  |  | > 100 µM | 50.8 µM | > 100 µM | 28.2 µM |  |  |  |  |  |  |  |  |  | 
3 | CSc1nnc(CCSc2ccnc3c(C(F)(F)F)cccc23)o1 |  | > 100 µM | > 100 µM | > 100 µM | > 100 µM | > 100 µM | > 100 µM | > 100 µM | > 100 µM | > 100 µM | > 100 µM | 9.21 µM | 47.3 µM | > 100 µM | > 100 µM | 40.7 µM | 71.5 µM | > 100 µM | 86.8 µM | 
4 | O=C(NCCCCCCNC(=O)c1cccc2ccccc12)c1cccc2ccccc12 | 65.6 µM | > 100 µM | > 100 µM | > 100 µM |  |  | 81.9 µM | > 100 µM | 66.3 µM | 58.6 µM |  |  |  |  |  |  |  |  |  | 
5 | C=C1C(=O)OC2CC3(C)C=CC(=O)C(=C)C3CC12 (configuration not stated) | 19.5 µM | 20.4 µM | 6.85 µM | > 100 µM |  |  | 6.91 µM | 3.48 µM | 3.13 µM | 6.55 µM |  |  |  |  |  |  |  |  |  | 
6 | O=C(CC1Sc2ccccc2NC1=O)Nc1cc(Cl)ccc1Cl (configuration not stated) | > 100 µM | > 100 µM | > 100 µM | > 100 µM |  |  | > 100 µM | > 100 µM | > 100 µM | > 100 µM |  |  |  |  |  |  |  |  |  | 
7 | O=C(CCn1[nH]c(=O)c(Cl)c(Cl)c1=O)NOCCCc1ccccc1 | > 100 µM | > 100 µM | > 100 µM | > 100 µM |  |  | > 100 µM | > 100 µM | > 100 µM | > 100 µM |  |  |  |  |  |  |  |  |  | 
8 | COC(=O)CCC(=O)N1Cc2cc(C)ccc2N(C(=O)CCC(=O)OC)Cc2cc(C)ccc21 |  | > 100 µM | > 100 µM | > 100 µM |  |  | > 100 µM | > 100 µM | > 100 µM | > 100 µM |  |  |  |  |  |  |  |  |  | 
9 | O=C1C(Cl)=C(N/N=c2/[nH][nH]/c(=N/NC3=C(Cl)C(=O)c4ccccc4C3=O)c3ccccc23)C(=O)c2ccccc21 | 24 µM | 52.2 µM |  | 13.9 µM | 38.4 µM | 28.2 µM | 29.9 µM | 39 µM | 25.9 µM | 28.5 µM | 21.9 µM |  | 3.23 µM | 12.3 µM | 12 µM | 12 µM | 12.2 µM | 19.5 µM | 12.3 µM | 11.5 µM
10 | CC1(C)CCC2(C(=O)OC3OC(CO)C(O)C(O)C3O)CC[C@]3(C)C(=CCC4C5(C)CC[C@H](OC6OC(C(=O)O)C(O)C(O)C6O)C(C)(C)C5CCC43C)C2C1 (some centres not stated) |  | 20.2 µM | 36.6 µM | > 50 µM | > 50 µM | 2.76 µM | 11.4 µM | 12.2 µM | 31.8 µM |  | 1.83 µM | 3.39 µM | 1.58 µM | 1.6 µM | 1.15 µM |  | 2.17 µM | 2.6 µM | 12.7 µM | 
11 | CC(=O)[O][Pb]([O]C(C)=O)([c]1ccccc1)[c]1ccccc1 | > 100 µM | > 100 µM | > 100 µM | > 100 µM |  |  | 16.6 µM | > 100 µM | > 100 µM | > 100 µM | > 100 µM | > 35 µM | > 25.9 µM |  |  | > 100 µM | 3.29 µM | 6.72 µM | > 100 µM | 23.4 µM
12 | CCC[CH2][Sn]([CH2]CCC)([O]C(C)=O)[O]C(C)=O |  | 15.3 µM | 4.94 µM | 2.59 µM |  |  | 4.1 µM | 2.27 µM | 3.13 µM | 3.5 µM | 3.65 µM | 1.84 µM | 0.299 µM |  |  | 1.79 µM | 1.23 µM | 1 µM | 1.72 µM | 
13 | CC(=O)/C(=C\c1ccco1)C(=O)Nc1ccccc1 |  | > 100 µM | > 100 µM | > 100 µM |  |  | > 100 µM | > 100 µM | > 100 µM | > 100 µM |  |  |  |  |  |  |  |  |  | 
14 | CC12CCC(=O)C(O1)C1C(=O)c3cc4ccccc4cc3C(=O)C12 (configuration not stated) |  | > 100 µM | 72.2 µM | 41.5 µM | 33 µM | 35.6 µM | 53 µM | 74.4 µM | > 100 µM | 41.2 µM | 32.4 µM | 23.4 µM | 16 µM | 12.6 µM | 14.9 µM | 12.2 µM | 16.1 µM | 20.3 µM | 42.5 µM | 
15 | COC(=O)[C@@H]1CSC(=S)N1C(=O)C[C@H]1CC=CC[C@H]1CC(=O)Sc1ccccc1 |  | 40.1 µM | 32.2 µM | 38.9 µM |  |  | 35.1 µM | 32.1 µM | 26.8 µM |  |  |  |  |  |  |  |  |  |  | 
16 | COc1cccc(C2=C(c3cn(C)c4ccccc34)C(=O)NC2=O)c1 | > 25 µM | > 25 µM |  | > 25 µM | > 25 µM | > 25 µM | > 25 µM | > 25 µM | > 25 µM | > 25 µM | 10.8 µM |  | 7.93 µM | 6.35 µM | 17.4 µM | 9.61 µM | 16.3 µM | > 21.7 µM | 10.8 µM | 3.09 µM
17 | NCC1(N2CCOCC2)C2CCCC21CO (configuration not stated) |  | > 100 µM |  | > 100 µM |  |  | > 100 µM | > 100 µM | > 100 µM | > 100 µM |  |  |  |  |  |  |  |  |  | 
18 | COc1cc2c(cc1OC)-c1ccc3cc4c(cc3c1N(CCN1CCCC1)C2)OCO4 | 4.63 µM | 2.02 µM | 7.31 µM | 1.65 µM |  | 3.3 µM | 2 µM | 20.3 µM | 4.09 µM | 6.49 µM | 0.534 µM | 0.953 µM | 0.291 µM |  | 1.27 µM | 0.858 µM | 0.36 µM | 7.09 µM | 1.51 µM | 1.57 µM
19 | CC1CC2C(=O)NC(=O)C2c2[nH]c3ccccc3c21 (configuration not stated) |  | > 100 µM | > 100 µM | > 100 µM |  |  | > 100 µM |  | > 100 µM | > 100 µM |  |  |  |  |  |  |  |  |  | 
